Data as given in PubChem BioAssay AID248 (DTP/NCI, 2004).
Several values for one entry are separate records, joined by “and”; a condition that tells them apart may be missing. Equal entries are not always repeated. Toxic doses and inconclusive results are not listed.

System: L1210 leukemia ip in BDF1 mice, survival T/C
Test: NCI In Vivo Anticancer Drug Screen. Data for tumor model L1210 Leukemia (intraperitoneal) in B6D2F1 (BDF1) mice
Settings: endpoint: mean survival time, higher = longer survival
Outline: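 Each compound was tested against a transplantable tumor grown in mice. The endpoint was survival, with treated animals benchmarked against vehicle controls as a simple ratio.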

[1] = dose: 100.0 mg/kg/injection, schedule: Q01DX001 (ip), vehicle: Klucel (hydroxypropylcellulose) (HPC)
[2] = dose: 200.0 mg/kg/injection, schedule: Q01DX001 (ip), vehicle: Klucel (hydroxypropylcellulose) (HPC)
[3] = dose: 400.0 mg/kg/injection, schedule: Q01DX001 (ip), vehicle: Klucel (hydroxypropylcellulose) (HPC)
[4] = dose: 100.0 mg/kg/injection, schedule: Q01DX009 (ip), vehicle: Klucel (hydroxypropylcellulose) (HPC)
[5] = dose: 100.0 mg/kg/injection, schedule: Q04DX003 (ip), vehicle: Klucel (hydroxypropylcellulose) (HPC)
[6] = dose: 200.0 mg/kg/injection, schedule: Q01DX009 (ip), vehicle: Klucel (hydroxypropylcellulose) (HPC)
[7] = dose: 200.0 mg/kg/injection, schedule: Q04DX003 (ip), vehicle: Klucel (hydroxypropylcellulose) (HPC)
[8] = dose: 400.0 mg/kg/injection, schedule: Q04DX003 (ip), vehicle: Klucel (hydroxypropylcellulose) (HPC)
[9] = dose: 100.0 mg/kg/injection, schedule: Q01DX009 (ip), vehicle: saline with Tween-80
[10] = dose: 100.0 mg/kg/injection, schedule: Q04DX003 (ip), vehicle: saline with Tween-80
[11] = dose: 200.0 mg/kg/injection, schedule: Q01DX009 (ip), vehicle: saline with Tween-80
[12] = dose: 200.0 mg/kg/injection, schedule: Q04DX003 (ip), vehicle: saline with Tween-80
[13] = dose: 400.0 mg/kg/injection, schedule: Q01DX009 (ip), vehicle: saline with Tween-80
[14] = dose: 400.0 mg/kg/injection, schedule: Q04DX003 (ip), vehicle: saline with Tween-80
[15] = dose: 100.0 mg/kg/injection, schedule: Q01DX001 (ip), vehicle: carboxymethylcellulose (CMC)
[16] = dose: 200.0 mg/kg/injection, schedule: Q01DX001 (ip), vehicle: carboxymethylcellulose (CMC)
[17] = dose: 400.0 mg/kg/injection, schedule: Q01DX001 (ip), vehicle: carboxymethylcellulose (CMC)
[18] = dose: 25.0 mg/kg/injection, schedule: Q01DX009 (ip), vehicle: saline with Tween-80
[19] = dose: 50.0 mg/kg/injection, schedule: Q01DX009 (ip), vehicle: saline with Tween-80
[20] = dose: 50.0 mg/kg/injection, schedule: Q04DX003 (ip), vehicle: Klucel (hydroxypropylcellulose) (HPC)

OC(Cc1ccccc1)(c1ccc(Cl)cc1)c1ccc(Cl)cc1
T/C [1]: 107 % of control
T/C [2]: 95 % of control
T/C [3]: 101 % of control

COc1cccc(NC(=O)Nc2ccccc2OC)c1
T/C [4]: 106 % of control
T/C [5]: 100 % of control
T/C [6]: 108 % of control
T/C [7]: 97 % of control
T/C (dose: 400.0 mg/kg/injection, schedule: Q01DX009 (ip), vehicle: Klucel (hydroxypropylcellulose) (HPC)): 103 % of control
T/C [8]: 100 % of control

Nc1nc2c(nnn2C2CC(CO)C(O)C2O)c(=O)[nH]1 (configuration not stated)
T/C (dose: 100.0 mg/kg/injection, schedule: Q01DX001 (ip), vehicle: other): 104 % of control
T/C (dose: 200.0 mg/kg/injection, schedule: Q01DX001 (ip), vehicle: other): 105 % of control
T/C (dose: 400.0 mg/kg/injection, schedule: Q01DX001 (ip), vehicle: other): 109 % of control

Brc1c(N=Cc2ccccc2)ccc2ccccc12
T/C [9]: 94 % of control
T/C [10]: 102 % of control
T/C [11]: 87 % of control
T/C [12]: 102 % of control
T/C [13]: 89 % of control
T/C [14]: 89 % of control

COC(=O)/C(C)=N\N=C(N)N
T/C (dose: 15.0 mg/kg/injection, schedule: Q01DX Z (ip), vehicle: carboxymethylcellulose (CMC)): 104 % of control
T/C (dose: 30.0 mg/kg/injection, schedule: Q01DX Z (ip), vehicle: carboxymethylcellulose (CMC)): 92 % of control
T/C (dose: 60.0 mg/kg/injection, schedule: Q01DX Z (ip), vehicle: carboxymethylcellulose (CMC)): 103 % of control
T/C (dose: 120.0 mg/kg/injection, schedule: Q01DX Z (ip), vehicle: carboxymethylcellulose (CMC)): 97 % of control
T/C (dose: 240.0 mg/kg/injection, schedule: Q01DX Z (oral), vehicle: carboxymethylcellulose (CMC)): 100 % of control
T/C (dose: 480.0 mg/kg/injection, schedule: Q01DX Z (oral), vehicle: carboxymethylcellulose (CMC)): 96 % of control
T/C (dose: 960.0 mg/kg/injection, schedule: Q01DX Z (oral), vehicle: carboxymethylcellulose (CMC)): 100 % of control
T/C (dose: 1920.0 mg/kg/injection, schedule: Q01DX Z (oral), vehicle: carboxymethylcellulose (CMC)): 98 % of control

O=C(Nc1ccc(C2=NCCCN2)cc1)c1ccc(C(=O)Nc2ccc(C3=NCCCN3)cc2)c(Cl)c1
T/C (dose: 0.04 mg/kg/injection, schedule: Q01DX015 (ip), vehicle: water): 98 % of control
T/C (dose: 0.09 mg/kg/injection, schedule: Q01DX015 (ip), vehicle: water): 101 % of control
T/C (dose: 0.18 mg/kg/injection, schedule: Q01DX015 (ip), vehicle: water): 95 % of control
T/C (dose: 0.37 mg/kg/injection, schedule: Q01DX015 (ip), vehicle: water): 101 % of control
T/C (dose: 0.75 mg/kg/injection, schedule: Q01DX015 (ip), vehicle: water): 107 % of control

COc1ccccc1C(=O)N/N=C/c1cccc([N+](=O)[O-])c1
T/C (dose: 100.0 mg/kg/injection, schedule: Q04DX002 (ip), vehicle: Klucel (hydroxypropylcellulose) (HPC)): 96 % of control
T/C (dose: 200.0 mg/kg/injection, schedule: Q04DX002 (ip), vehicle: Klucel (hydroxypropylcellulose) (HPC)): 89 % of control
T/C (dose: 400.0 mg/kg/injection, schedule: Q04DX002 (ip), vehicle: Klucel (hydroxypropylcellulose) (HPC)): 89 % of control

CC(=O)C1=C(c2ccccc2)C(=O)C(C(C)=O)=C(c2ccccc2)C1=O
T/C [5]: 100 % of control
T/C [7]: 100 % of control
T/C [8]: 96 % of control

Cc1cn(O)c2nc(N)nc(=O)c-2n1
T/C (dose: 25.0 mg/kg/injection, schedule: Q01DX001 (ip), vehicle: Klucel (hydroxypropylcellulose) (HPC)): 97 % of control
T/C (dose: 50.0 mg/kg/injection, schedule: Q01DX001 (ip), vehicle: Klucel (hydroxypropylcellulose) (HPC)): 103 % of control
T/C [1]: 100 % of control and 101 % of control

N#CCCc1c(O)ccc2ccccc12
T/C [9]: 105 % of control
T/C [11]: 102 % of control
T/C [13]: 105 % of control

CC(C)CCCC(C)C1CCC2C3CC=C4CC(OCCCl)CCC4(C)C3CCC12C (configuration not stated)
T/C [10]: 96 % of control
T/C [12]: 96 % of control
T/C [14]: 93 % of control

O=P(O)(O)OP(=O)(O)OP(=O)(O)OCC1OC(N2C=NC3C4NC=CN4CNC32)C(O)C1O (configuration not stated)
T/C (dose: 3.13 mg/kg/injection, schedule: Q03HX024 (ip), vehicle: saline): 97 % of control
T/C (dose: 6.25 mg/kg/injection, schedule: Q03HX024 (ip), vehicle: saline): 93 % of control
T/C (dose: 7.5 mg/kg/injection, schedule: Q03HX024 (ip), vehicle: saline): 95 % of control
T/C (dose: 15.0 mg/kg/injection, schedule: Q03HX024 (ip), vehicle: saline): 93 % of control

CC(N)CCCO (configuration not stated)
T/C (dose: 5.0 mg/kg/injection, schedule: Q01DX001 (ip), vehicle: saline): 103 % of control
T/C (dose: 10.0 mg/kg/injection, schedule: Q01DX001 (ip), vehicle: saline): 97 % of control
T/C (dose: 20.0 mg/kg/injection, schedule: Q01DX001 (ip), vehicle: saline): 103 % of control
T/C (dose: 40.0 mg/kg/injection, schedule: Q01DX001 (ip), vehicle: saline): 101 % of control
T/C (dose: 80.0 mg/kg/injection, schedule: Q01DX001 (ip), vehicle: saline): 103 % of control

CC[C@H](CC[C@@H](C)[C@H]1CC[C@H]2[C@@H]3CC=C4C[C@@H](OC(=O)CSC(CC(=O)O)C(=O)O)CC[C@]4(C)[C@H]3CC[C@]12C)C(C)C (some centres not stated)
T/C (dose: 100.0 mg/kg/injection, schedule: Q01DX001 (ip), vehicle: water): 98 % of control
T/C (dose: 200.0 mg/kg/injection, schedule: Q01DX001 (ip), vehicle: water): 86 % of control
T/C (dose: 400.0 mg/kg/injection, schedule: Q01DX001 (ip), vehicle: water): 93 % of control

Cc1cccnc1NC(=O)NCCCl
T/C [15]: 101 % of control
T/C [4]: 92 % of control
T/C (dose: 100.0 mg/kg/injection, schedule: Q04DX003 (ip), vehicle: saline): 98 % of control
T/C [16]: 103 % of control
T/C [6]: 93 % of control
T/C (dose: 200.0 mg/kg/injection, schedule: Q04DX003 (ip), vehicle: saline): 97 % of control
T/C [17]: 103 % of control
T/C (dose: 400.0 mg/kg/injection, schedule: Q04DX003 (ip), vehicle: saline): 89 % of control

O=C1CCCC2CCCC12 (configuration not stated)
T/C [15]: 93 % of control
T/C [16]: 95 % of control
T/C [17]: 93 % of control

CC(C)C1CCC(NC(=O)Nc2ccccc2)CC1 (configuration not stated)
T/C [18]: 93 % of control
T/C (dose: 25.0 mg/kg/injection, schedule: Q04DX003 (ip), vehicle: saline with Tween-80): 97 % of control
T/C [19]: 95 % of control
T/C (dose: 50.0 mg/kg/injection, schedule: Q04DX003 (ip), vehicle: saline with Tween-80): 101 % of control
T/C [1]: 111 % of control
T/C [9]: 88 % of control
T/C [5]: 94 % of control
T/C [10]: 100 % of control and 106 % of control
T/C [2]: 101 % of control
T/C [7]: 101 % of control
T/C [3]: 103 % of control
T/C [8]: 94 % of control

Cc1nc(C(N)=O)c2nc3c4ccccc4c4ccccc4c3nn12
T/C (dose: 25.0 mg/kg/injection, schedule: Q04DX002 (ip), vehicle: saline with Tween-80): 94 % of control
T/C (dose: 50.0 mg/kg/injection, schedule: Q04DX002 (ip), vehicle: saline with Tween-80): 91 % of control
T/C (dose: 100.0 mg/kg/injection, schedule: Q04DX002 (ip), vehicle: saline with Tween-80): 87 % of control
T/C (dose: 200.0 mg/kg/injection, schedule: Q04DX002 (ip), vehicle: saline with Tween-80): 89 % of control
T/C (dose: 400.0 mg/kg/injection, schedule: Q04DX002 (ip), vehicle: saline with Tween-80): 92 % of control

Cc1cc(N(CCCl)CCCl)ccc1C=Nc1cc(Cl)ccc1-n1ccnc1C
T/C [20]: 98 % of control
T/C [5]: 98 % of control
T/C [7]: 101 % of control
T/C [8]: 90 % of control

Cn1ccc2c([N+](=O)[O-])cccc2c1=O
T/C (dose: 25.0 mg/kg/injection, schedule: Q04DX003 (ip), vehicle: Klucel (hydroxypropylcellulose) (HPC)): 92 % of control
T/C [20]: 98 % of control

C=CCCCCCCCCC(N)=O
T/C [18]: 108 % of control
T/C [19]: 96 % of control
T/C [10]: 101 % of control
T/C [12]: 95 % of control
T/C [14]: 184 % of control
